The values below come from article PMC8229862, “Elaiophylin Is a Potent Hsp90/ Cdc37 Protein Interface Inhibitor with K-Ras Nanocluster Selectivity” (Biomolecules, 2021).

SMILES strings stand for the structures.

One may read the IC50 as the concentration needed to halve the response being measured.

The target of one test is T1, Hsp90α (Homo sapiens, UniProt P07900).
T1 construct: gene HSP90AA1; endogenous Hsp90 in MDA-MB-231 or MIA PaCa-2 cells; with Cdc37
Briefly: co-immunoprecipitation of Cdc37 with Hsp90α from cells treated with […] for […] h. Format: cell-based.

Test [1] deals with T2, Hsp90 (N-terminal domain) (Homo sapiens, UniProt P07900).
T2 construct: gene HSP90AA1; N-terminal fragment of Hsp90 (NRL-N-Hsp90); with Cdc37
Briefly: lysate-based split Renilla luciferase Hsp90/Cdc37 interaction assay; supported by co-immunoprecipitation. Format: biochemical.

As for `C/C1=C\[C@H](C)C[C@H](C)[C@H](Cc2cnco2)OC(=O)/C(C)=C/[C@H](C)C[C@H](C)[C@H](Cc2cnco2)OC1=O` [conglobatin A], the “co-immunoprecipitation of Cdc37 with Hsp90α from cells treated with 10 μM for 24” value at Hsp90α is “Both elaiophylin and conglobatin A treatment reduced the amount of co-precipitated Cdc37”. Take `CC[C@@H]1[C@@H](C)O[C@@](O)([C@@H](C)[C@H](O)[C@H](C)[C@H]2OC(=O)/C=C/C=C/[C@H](C)[C@@H]([C@@H](C)[C@@H](O)[C@H](C)[C@@]3(O)C[C@@H](O[C@H]4C[C@H](O)[C@H](O)[C@H](C)O4)[C@H](CC)[C@@H](C)O3)OC(=O)/C=C/C=C/[C@@H]2C)C[C@H]1O[C@H]1C[C@H](O)[C@H](O)[C@H](C)O1` [elaiophylin]: the IC50 in test [1] came to 11 ± 4 µM.
